Assay results as given in patent US10364240B2, “Aryl sulfonamides” (ChemoCentryx, Inc., priority 2002, dated 2019).

Tested on: MDR1a-knockout mice
Experiment: MDR1a-knockout mice colitis model, prophylactic administration
Format: in vivo
Details: female mice, 50 mg/kg twice a day subcutaneous, 14 weeks from age 10 weeks
Description: The MDR1a-knockout mice, which lack the P-glycoprotein gene, spontaneously develop colitis under specific pathogen-free condition. The pathology in these animals has been characterized as Th1-type T cell-mediated inflammation similar to ulcerative colitis in humans. Disease normally begins to develop at around 8-10 weeks after birth. However the ages at which disease emerges and the ultimate penetrance level often vary considerably among different animal facilities.
[drawing 328] was evaluated by prophylactic administration for its ability to delay disease onset. Female mice (n=34) were dosed with 50 mg/kg twice a day by subcutaneous injections for 14 consecutive weeks starting at age 10 weeks. […] Moreover, the number of mice developing diarrhea was also lower among compound-treated mice (17%), compared to mice receiving vehicle alone (24%)(FIG. 1).

`CC(C)(C)c1ccc(S(=O)(=O)Nc2ccc(Cl)cc2C(=O)c2ccncc2)cc1` was tested, and the IBD-associated growth retardation was “prevented IBD-associated growth retardation”.

Same assay, conditions: female mice, 50 mg/kg twice a day subcutaneous, 14 weeks from age 10 weeks; vehicle 24%

In the case of `CC(C)(C)c1ccc(S(=O)(=O)Nc2ccc(Cl)cc2C(=O)c2ccncc2)cc1`, the “number of mice developing diarrhea” value is reported as 17%.

Molecular target: T1, CCR9 (Homo sapiens, UniProt P51686)
T1 construct: CCR9-expressing cells (such as a T cell line MOLT-4 cells)
T1 sequence (P51686 1-369): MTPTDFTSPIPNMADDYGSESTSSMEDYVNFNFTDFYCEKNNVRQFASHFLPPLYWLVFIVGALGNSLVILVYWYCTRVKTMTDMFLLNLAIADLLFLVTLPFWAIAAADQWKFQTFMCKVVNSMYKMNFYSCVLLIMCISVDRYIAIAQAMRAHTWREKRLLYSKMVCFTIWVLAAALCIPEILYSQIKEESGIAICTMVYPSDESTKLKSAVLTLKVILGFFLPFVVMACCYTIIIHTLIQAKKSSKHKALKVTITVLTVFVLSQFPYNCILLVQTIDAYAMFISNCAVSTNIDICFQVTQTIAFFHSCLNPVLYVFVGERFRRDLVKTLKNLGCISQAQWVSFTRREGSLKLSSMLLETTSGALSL
Experiment: chemotaxis (conventional migration) assay and/or calcium mobilization (calcium flux) assay
Format: cell-based
Details: either or both of the chemotaxis assay and calcium mobilization assays; MOLT-4 cells, TECK
Description: MOLT-4 cells were obtained from the American Type Culture Collection (Manassas, Va.) and cultured in RPMI tissue culture medium supplemented with 10% fetal calf serum (FCS) in a humidified 5% CO2 incubator at 37° C. Recombinant human chemokine protein TECK was obtained from R&D Systems (Minneapolis, Minn.). ChemoTX® chemotaxis microchambers were purchased from Neuro Probe (Gaithersburg, Md.). CyQUANT® cell proliferation kits were purchased from Molecular Probes (Eugene, Oreg.). Calcium indicator dye Fluo-4 AM was purchased from Molecular Devices (Mountain View, Calif.).
Conventional migration assay was used to determine the efficacy of potential receptor antagonists in blocking migration mediated through CCR9. This assay was routinely performed using the ChemoTX® microchamber system with a 5-μm pore-sized polycarbonate membrane. To begin such an assay, MOLT-4 cells were harvested by centrifugation of cell suspension at 1000 PRM on a GS-6R Beckman centrifuge. The cell pellet was resuspended in chemotaxis buffer (HBSS with 0.1% BSA) at 5×10^6 cells/mL. Test compounds at desired concentrations were prepared from 10 mM stock solutions by serial dilutions in chemotaxis buffer. An equal volume of cells and compounds were mixed and incubated at room temperature for 15 minutes. Afterwards, 20 μL of the mixture was transferred onto the porus membrane of a migration microchamber, with 29 μL of 50 nM chemokine TECK protein placed at the lower chamber. Following a 150-minute incubation at 37° C., during which cells migrated against the chemokine gradient, the assay was terminated by removing the cell drops from atop the filter. To quantify cells migrated across the membrane, 5 μL of 7× CyQUANT® solution was added to each well in the lower chamber, and the fluorescence signal measured on a Spectrafluor Plus fluorescence plate reader (TECAN, Durham, N.C.). The degree of inhibition was determined by comparing migration signals betweeen compound-treated and untreated cells. IC50 calculation was further performed by non-linear squares regression analysis using Graphpad Prism (Graphpad Software, San Diego, Calif.).
Calcium flux assay measures an increase in intracellular calcium following ligand-induced receptor activation. In the screen of CCR9 antagonists, it was used as a secondary assay carried out on a FLIPR® machine (Molecular Devices, Mountain View, Calif.). To begin an assay, MOLT-4 cells were harvested by centrifugation of cell suspension, and resuspended to 1.5×10^6 cells/mL in HBSS (with 1% fetal calf serum). Cells were then labeled with a calcium indicator dye Fluo-4 AM for 45 minutes at 37° C. with gentle shaking. Following incubation, cells were pelletted, washed once with HBSS and resuspended in the same buffer at a density of 1.6×10^6 cells/mL. One hundred microliters of labeled cells were mixed with 10 μL of test compound at the appropriate concentrations on an assay plate. […] The degree of inhibition was determined by comparing calcium signals between compound-treated and untreated cells. IC50 calculations were further performed by non-linear squares regression analysis using Graphpad Prism (Graphpad Software, San Diego, Calif.).

First: Cc1cc(C(=O)c2cc(Cl)ccc2NS(=O)(=O)c2ccc(-c3ncco3)cc2)ccn1
Second: Cc1cc(C(=O)c2cc(Cl)ccc2NS(=O)(=O)c2ccc(S(C)(=O)=O)cc2)ccn1
The IC50 of the first is lower: less than 1000 nM for the first, greater than 1000 nM for the second. The first is the more potent here.

Compared with `CC(C)(c1ccc(S(=O)(=O)Nc2ccc(Cl)cc2C(=O)c2ccccn2)cc1)c1ncco1`, `COc1ccc(S(=O)(=O)Nc2ccc(Cl)cc2C(=O)c2ccccn2)cc1` is higher in IC50: less than 1000 nM for the first, greater than 1000 nM for the second. The first is the more potent here.

`CC1(c2ccc(S(=O)(=O)Nc3ccc(Cl)cc3C(=O)c3cc[nH]n3)cc2)CCOCC1` and `CC1COC(C)(c2ccc(S(=O)(=O)Nc3ccc(Cl)cc3C(=O)c3ccncc3)cc2)O1` (stereo not drawn) cannot be ordered by IC50: less than 1000 nM for the first, less than 1000 nM for the second.

`C[C@@H]1CC(c2ccc(S(=O)(=O)Nc3ccc(Cl)cc3C(=O)c3cccnc3)cc2)C[C@H](C)O1` (stereo partly drawn) and `Cc1ccc(C(=O)c2cc(Cl)ccc2NS(=O)(=O)c2ccc(C3C[C@@H](C)O[C@@H](C)C3)cc2)cn1` (stereo partly drawn) cannot be ordered by IC50: less than 1000 nM for the first, less than 1000 nM for the second.

Compared with `C[C@@H]1CN(c2ccc(S(=O)(=O)Nc3ccc(Cl)cc3C(=O)c3cccnc3)cc2F)C[C@H](C)O1`, `CS(=O)(=O)c1ccc(S(=O)(=O)Nc2ccc(Cl)cc2C(=O)c2cccnc2)cc1` is higher in IC50: less than 1000 nM for the first, greater than 1000 nM for the second. The first is the more potent here.

`Cc1ccc(S(=O)(=O)Nc2ccc(Cl)cc2C(=O)c2ccncc2)cc1` and `O=C(c1ccncc1)c1cc(Cl)ccc1NS(=O)(=O)c1ccc(Br)cc1` cannot be ordered by IC50: less than 1000 nM for the first, less than 1000 nM for the second.

`Cc1ccc(C(=O)c2cc(Cl)ccc2NS(=O)(=O)c2ccc(S(C)(=O)=O)cc2)cn1` and `CC(C)(C)c1ccc(S(=O)(=O)Nc2ccc(Cl)cc2C(=O)c2ccc(S(C)(=O)=O)nc2)cc1` cannot be ordered by IC50: less than 1000 nM for the first, less than 1000 nM for the second.

`CS(=O)(=O)c1ccc(S(=O)(=O)Nc2ccc(Br)cc2C(=O)c2ccncc2)cc1` and `CCc1ccc(S(=O)(=O)Nc2ccc(Br)cc2C(=O)c2ccncc2)cc1` cannot be ordered by IC50: less than 1000 nM for the first, less than 1000 nM for the second.

`CC(C)(C)c1ccc(S(=O)(=O)Nc2ccc(Cl)cc2C(=O)c2ncccn2)cc1` and `CC(C)(C)c1ccc(S(=O)(=O)Nc2ccc(Cl)cc2C(=O)c2cnccn2)cc1` cannot be ordered by IC50: less than 1000 nM for the first, less than 1000 nM for the second.

`O=C(c1ccncc1)c1cc(Br)ccc1NS(=O)(=O)c1ccc(OC(F)(F)F)cc1` and `Cc1ccc(C(=O)c2cc(Cl)ccc2NS(=O)(=O)c2ccc(OC(F)(F)F)cc2)c[n+]1[O-]` cannot be ordered by IC50: less than 1000 nM for the first, less than 1000 nM for the second.

`CC(C)(CO)c1ccc(S(=O)(=O)Nc2ccc(Cl)cc2C(=O)c2cc[n+]([O-])cc2)cc1` and `O=C(c1cc[n+]([O-])cc1)c1cc(Cl)ccc1NS(=O)(=O)c1ccc(-c2cnco2)cc1` cannot be ordered by IC50: less than 1000 nM for the first, less than 1000 nM for the second.

`CC(=O)OCC(C)(C)c1ccc(S(=O)(=O)Nc2ccc(Cl)cc2C(=O)c2ccncc2)cc1` and `COc1cc(C(=O)c2cc(Cl)ccc2NS(=O)(=O)c2ccc(C(C)(C)C)cc2)ccn1` cannot be ordered by IC50: less than 1000 nM for the first, less than 1000 nM for the second.

`O=C(c1cccnc1)c1cc(Cl)ccc1NS(=O)(=O)c1ccc(-c2cnco2)cc1` and `O=C(c1cccnc1)c1cc(Cl)ccc1NS(=O)(=O)c1ccc(-c2cocn2)cc1` cannot be ordered by IC50: less than 1000 nM for the first, less than 1000 nM for the second.

`Cc1c(C(=O)c2cc(Cl)ccc2NS(=O)(=O)c2ccc(OC(C)C)cc2)ccc[n+]1[O-]` and `Cc1ccc(C(=O)c2cc(Cl)ccc2NS(=O)(=O)c2ccc(OC(C)C)cc2)c[n+]1[O-]` cannot be ordered by IC50: less than 1000 nM for the first, less than 1000 nM for the second.

`CSc1cc(C(=O)c2cc(Cl)ccc2NS(=O)(=O)c2ccc(C(C)(C)C)cc2)ccn1` and `CC(C)(C)c1ccc(S(=O)(=O)Nc2ccc(Cl)cc2C(=O)c2cccc[n+]2[O-])cc1` cannot be ordered by IC50: less than 1000 nM for the first, less than 1000 nM for the second.

Going from `COC(=O)CCc1ccc(S(=O)(=O)Nc2ccc(Cl)cc2C(=O)c2ccc(C)nc2)cc1` to `COC(=O)CCc1ccc(S(=O)(=O)Nc2ccc(Cl)cc2C(=O)c2ccnc(C)c2)cc1`, the IC50 rises from less than 1000 nM to greater than 1000 nM.

Compared with `O=C(c1ncccn1)c1cc(Cl)ccc1NS(=O)(=O)c1ccc(-c2cnco2)cc1`, `O=C(c1cccnc1)c1cc(Cl)ccc1NS(=O)(=O)c1ccc(-c2nccs2)cc1` is higher in IC50: less than 1000 nM for the first, greater than 1000 nM for the second.

Compared with `Cc1nc(C)c(-c2ccc(S(=O)(=O)Nc3ccc(Cl)cc3C(=O)c3ccncc3)cc2)o1`, `C[C@H]1OC(C)(c2ccc(S(=O)(=O)Nc3ccc(Cl)cc3C(=O)c3ccncc3)cc2)O[C@@H]1C` is higher in IC50: less than 1000 nM for the first, greater than 1000 nM for the second. The first is the more potent here.

`O=C(c1ccncc1)c1cc(Cl)ccc1NS(=O)(=O)c1ccc2c(c1)CNCC2` and `COc1c(Cl)ccc(NS(=O)(=O)c2ccc(C(C)(C)C)cc2)c1C(=O)c1ccncc1` [drawing 475] cannot be ordered by IC50: less than 1000 nM for the first, less than 1000 nM for the second.

`COC(=O)CCc1ccc(S(=O)(=O)Nc2ccc(Cl)cc2C(=O)c2cccnc2C)cc1` and `Cc1c(C(=O)c2cc(Cl)ccc2NS(=O)(=O)c2ccc(OC(F)(F)F)cc2)ccc[n+]1[O-]` cannot be ordered by IC50: less than 1000 nM for the first, less than 1000 nM for the second.

Going from `CC(C)(C)c1ccc(S(=O)(=O)Nc2c(Cl)cccc2C(=O)c2ccncc2)cc1` to `COc1c(Cl)ccc(NS(=O)(=O)c2ccc(C(C)(C)C)cc2)c1C(=O)c1ccncc1` [drawing 520], the IC50 rises from less than 1000 nM to greater than 1000 nM. The first is the more potent here.

Work on `CC(C)(c1ccc(S(=O)(=O)Nc2cc(F)c(F)cc2C(=O)c2cccnc2)cc1)c1ncco1` yielded an IC50 of less than 1000 nM.
